Assay results as given in ChEMBL document CHEMBL3217530, “Synthesis of coumarinchalcone hybrids and evaluation of their antioxidant and trypanocidal properties” (2013).
The source made the active and inactive calls. No cut-off for these calls is given here.

Columns and labels:
[1] = test system: Trypanosoma cruzi; assay: Antitrypanosomal activity against Trypanosoma cruzi Dm28c epimastigotes assessed as non-viable epimastigotes at 100 umol/L after 4 hrs by MTT assay relative to untreated control; type: functional
[2] = test system: Trypanosoma cruzi; assay: Antitrypanosomal activity against Trypanosoma cruzi Dm28c epimastigotes assessed as non-viable epimastigotes at 10 umol/L after 4 hrs by MTT assay relative to untreated control; type: functional
[3] = Antioxidant activity assessed as hydroxyl radical scavenging activity after 5 mins by ESR spectroscopy; set-up: concentration or dose not given beside the values
[4] = Antioxidant activity assessed as compound compete with DMPO for hydroxyl radicals by ESR assay; type: functional

With `O=C(c1ccc(O)c(O)c1)c1cc2cc(O)ccc2oc1=O` the Activity [1] was 46.4%, the Activity [2] was 18.9% and the Activity [3] was 84.8%.
For `O=C(c1ccc(O)c(O)c1)c1cc2cc(Br)cc(O)c2oc1=O`, the Activity [4] was “Active”, the Activity [1] was 24.1% and the Activity [2] was 9.5%. It also gave an Activity [3] of 90.9%.
`Cc1ccc2oc(=O)c(C(=O)c3ccc(O)c(O)c3)cc2c1` showed an Activity [1] of 47.9%, an Activity [2] of 27.9% and an Activity [3] of 82.1%.
Work on `CC1CS(=O)(=O)CCN1/N=C/c1ccc([N+](=O)[O-])o1` (stereo not drawn) [NIFURTIMOX] yielded an Activity [1] of 100% and an Activity [2] of 52.5%.
For `O=C(c1ccc(O)c(O)c1)c1cc2c(O)cc(O)cc2oc1=O`, the Activity [1] was “inactive”, the Activity [2] was “inactive” and the Activity [3] was 84.2%.
Molecule `O=C(c1ccc(O)c(O)c1)c1cc2ccccc2oc1=O` has an Activity [1] of 38.7%, an Activity [2] of 23.8% and an Activity [3] of 84.6%.
